Experimental data: the NIST ThermoML archive (doi:10.1016/j.jct.2019.04.023)
Numbers after ± are expanded uncertainties.

How the values were obtained:
[1] = 101 kPa, Liquid; for viscosity: Falling or rolling sphere viscometry; for mass density: Vibrating tube method
[2] = xn = mol fraction of the nth substance listed; conditions: 101 kPa, Liquid, x2 = 0; for viscosity: Falling or rolling sphere viscometry; for mass density: Vibrating tube method

Q: For `CC[N+](CC)=C(N(C)C)N(C)C.O=S(=O)([N-]S(=O)(=O)C(F)(F)F)C(F)(F)F`, which viscosity ([1]; 293.15 K) is on record?
A: The viscosity was 81.02 ± 3.5 mPa·s.

Q: What about the mass density ([1]; 293.15 K) of the same compound?
A: The mass density was 1377.86 ± 2.8 kg/m3.

Q: And the viscosity ([1]; 298.15 K)?
A: The viscosity was 65.01 ± 2.7 mPa·s.

Q: What about the mass density ([1]; 298.15 K) of the same compound?
A: The mass density was 1373.16 ± 2.8 kg/m3.

Q: And the viscosity ([1]; 303.15 K)?
A: The viscosity was 52.96 ± 2.1 mPa·s.

Q: What about the mass density ([1]; 303.15 K) of the same compound?
A: The mass density was 1368.51 ± 2.8 kg/m3.

Q: And the viscosity ([1]; 308.15 K)?
A: Its viscosity is 43.84 ± 1.8 mPa·s.

Q: What about the mass density ([1]; 308.15 K) of the same compound?
A: The mass density was 1363.9 ± 2.8 kg/m3.

Q: And the viscosity ([1]; 313.15 K)?
A: The viscosity was 36.79 ± 1.5 mPa·s.

Q: What about the mass density ([1]; 313.15 K) of the same compound?
A: Its mass density is 1359.32 ± 2.8 kg/m3.

Q: And the viscosity ([1]; 318.15 K)?
A: Its viscosity is 31.25 ± 1.3 mPa·s.

Q: And the mass density ([1]; 318.15 K)?
A: The mass density was 1354.76 ± 2.8 kg/m3.

Q: What about the viscosity ([1]; 323.15 K) of the same compound?
A: Its viscosity is 26.79 ± 1.1 mPa·s.

Q: What about the mass density ([1]; 323.15 K) of the same compound?
A: Its mass density is 1350.21 ± 2.7 kg/m3.

Q: Which results are given for `CCO` [ethanol]?
A: viscosity ([1]; 293.15 K): 1.177 ± 0.048 mPa·s; mass density ([1]; 293.15 K): 789.53 ± 1.6 kg/m3; viscosity ([1]; 298.15 K): 1.074 ± 0.044 mPa·s; mass density ([1]; 298.15 K): 785.25 ± 1.6 kg/m3; viscosity ([1]; 303.15 K): 0.977 ± 0.04 mPa·s; mass density ([1]; 303.15 K): 780.93 ± 1.6 kg/m3; viscosity ([1]; 308.15 K): 0.888 ± 0.036 mPa·s; mass density ([1]; 308.15 K): 776.58 ± 1.6 kg/m3; viscosity ([1]; 313.15 K): 0.819 ± 0.033 mPa·s; mass density ([1]; 313.15 K): 772.19 ± 1.6 kg/m3; viscosity ([1]; 318.15 K): 0.753 ± 0.031 mPa·s; mass density ([1]; 318.15 K): 767.75 ± 1.5 kg/m3; viscosity ([1]; 323.15 K): 0.697 ± 0.028 mPa·s; mass density ([1]; 323.15 K): 763.27 ± 1.5 kg/m3

Q: Which results are given for `CCO` [ethanol] + CC[N+](CC)=C(N(C)C)N(C)C.O=S(=O)([N-]S(=O)(=O)C(F)(F)F)C(F)(F)F?
A: viscosity ([2]; 293.15 K): 1.177 ± 0.048 mPa·s; mass density ([2]; 293.15 K): 789.53 ± 1.6 kg/m3; viscosity ([2]; 298.15 K): 1.074 ± 0.044 mPa·s; mass density ([2]; 298.15 K): 785.25 ± 1.6 kg/m3; viscosity ([2]; 303.15 K): 0.977 ± 0.04 mPa·s; mass density ([2]; 303.15 K): 780.93 ± 1.6 kg/m3; viscosity ([2]; 308.15 K): 0.888 ± 0.036 mPa·s; mass density ([2]; 308.15 K): 776.58 ± 1.6 kg/m3; viscosity ([2]; 313.15 K): 0.819 ± 0.033 mPa·s; mass density ([2]; 313.15 K): 772.19 ± 1.6 kg/m3; viscosity ([2]; 318.15 K): 0.753 ± 0.031 mPa·s; mass density ([2]; 318.15 K): 767.75 ± 1.5 kg/m3; viscosity ([2]; 323.15 K): 0.697 ± 0.028 mPa·s; mass density ([2]; 323.15 K): 763.27 ± 1.5 kg/m3

Q: For `CO` [methanol], which viscosity ([1]; 293.15 K) is on record?
A: Its viscosity is 0.584 ± 0.024 mPa·s.

Q: What about the mass density ([1]; 293.15 K) of the same compound?
A: Its mass density is 791.3 ± 1.6 kg/m3.

Q: And the viscosity ([1]; 298.15 K)?
A: The viscosity was 0.552 ± 0.022 mPa·s.

Q: What about the mass density ([1]; 298.15 K) of the same compound?
A: The mass density was 786.6 ± 1.6 kg/m3.

Q: And the viscosity ([1]; 303.15 K)?
A: The viscosity was 0.524 ± 0.021 mPa·s.

Q: And the mass density ([1]; 303.15 K)?
A: Its mass density is 781.87 ± 1.6 kg/m3.

Q: And the viscosity ([1]; 308.15 K)?
A: Its viscosity is 0.49 ± 0.02 mPa·s.

Q: And the mass density ([1]; 308.15 K)?
A: Its mass density is 777.12 ± 1.6 kg/m3.

Q: What about the viscosity ([1]; 313.15 K) of the same compound?
A: The viscosity was 0.459 ± 0.019 mPa·s.

Q: And the mass density ([1]; 313.15 K)?
A: Its mass density is 772.34 ± 1.6 kg/m3.

Q: And the viscosity ([1]; 318.15 K)?
A: The viscosity was 0.439 ± 0.018 mPa·s.

Q: What about the mass density ([1]; 318.15 K) of the same compound?
A: Its mass density is 767.52 ± 1.5 kg/m3.

Q: What about the viscosity ([1]; 323.15 K) of the same compound?
A: The viscosity was 0.417 ± 0.017 mPa·s.

Q: What about the mass density ([1]; 323.15 K) of the same compound?
A: Its mass density is 762.67 ± 1.5 kg/m3.

Q: Which results are given for `CO` [methanol] + CC[N+](CC)=C(N(C)C)N(C)C.O=S(=O)([N-]S(=O)(=O)C(F)(F)F)C(F)(F)F?
A: viscosity ([2]; 293.15 K): 0.584 ± 0.024 mPa·s; mass density ([2]; 293.15 K): 791.3 ± 1.6 kg/m3; viscosity ([2]; 298.15 K): 0.552 ± 0.022 mPa·s; mass density ([2]; 298.15 K): 786.6 ± 1.6 kg/m3; viscosity ([2]; 303.15 K): 0.524 ± 0.021 mPa·s; mass density ([2]; 303.15 K): 781.87 ± 1.6 kg/m3; viscosity ([2]; 308.15 K): 0.49 ± 0.02 mPa·s; mass density ([2]; 308.15 K): 777.12 ± 1.6 kg/m3; viscosity ([2]; 313.15 K): 0.459 ± 0.019 mPa·s; mass density ([2]; 313.15 K): 772.34 ± 1.6 kg/m3; viscosity ([2]; 318.15 K): 0.439 ± 0.018 mPa·s; mass density ([2]; 318.15 K): 767.52 ± 1.5 kg/m3; viscosity ([2]; 323.15 K): 0.417 ± 0.017 mPa·s; mass density ([2]; 323.15 K): 762.67 ± 1.5 kg/m3
